Source: patent US6703347B2, “Isothiazole derivatives and their use as pesticides” (Syngenta Limited, priority 2000, dated 2004)
Values joined by “and” are separate entries in the source; they are usually repeats but may differ in a detail not shown here. Identical values can stand only once.

What was measured:
[1] = tested on: Uncinula necator (UNCINE); test: foliar fungicide test on vines (Example 18); assay type: in vivo; details: 100 ppm foliar spray on vines; for UNCINE Erad, PRCO (Percentage Reduction from Control): inoculated one day before chemical application (Erad)
[2] = tested on: Puccinia recondita (PUCCRT); test: foliar fungicide test on wheat (Example 18); assay type: in vivo; details: 100 ppm foliar spray on wheat; inoculated one day after chemical application (Prot)
[3] = tested on: peach potato aphids (Myzus persicae); test: whole plant or invertebrate; details: 72 h, read-out: mortality (score) Mp
Procedure: (§1) This Example illustrates the pesticidal/insecticidal properties of compounds of formula (I). The activities of individual compounds of formula (I) were determined using a variety of pests. The pests were treated with a liquid composition containing 500 parts per million (ppm) by weight of a compound of formula (I). Each composition was made by dissolving the compound in an acetone and ethanol (50:50 by volume) mixture and diluting the solution with water containing 0.05% by volume of a wetting agent, SYNPERONIC NP8, until the liquid composition contained the required concentration of the compound.
(§2) The test procedure adopted with regard to each pest was essentially the same and comprised supporting a number of the pests on a medium, which was usually a substrate, a host plant or a foodstuff on which the pests feed, and treating either or both the medium and the pests with a composition. Pest mortality was assessed usually between two and five days after treatment.
(§3) In each test against peach potato aphids (Myzus persicae), Chinese cabbage leaves were infested with aphids, the infested leaves were sprayed with a test composition and pest mortality was assessed after three days.

[4] = tested on: Pyricularia oryzae (PYRIOR); assay type: in vivo; details: 100 ppm foliar spray on rice; inoculated one day after chemical application (Prot)
[5] = tested on: diamond back moth (Plutella xylostella); test: pesticidal test against diamond back moth; details: liquid composition containing 500 ppm by weight of compound
Procedure: (§4) The activities of individual compounds of formula (I) were determined using a variety of pests. The pests were treated with a liquid composition containing 500 parts per million (ppm) by weight of a compound of formula (I). Each composition was made by dissolving the compound in an acetone and ethanol (50:50 by volume) mixture and diluting the solution with water containing 0.05% by volume of a wetting agent, SYNPERONIC NP8, until the liquid composition contained the required concentration of the compound.
as §2
(§5) Similar tests were conducted against, independently, two-spotted spider mites (Tetranychus urticae), fruit flies (Drosophila melanogaster), tobacco budworms (Heliothis virescens), diamond back moth (Plutella xylostella) and corn root worm (Diabrotica balteata).

[6] = tested on: tobacco budworms (Heliothis virescens); test: pesticidal test against tobacco budworms; details: liquid composition containing 500 ppm by weight of compound
Procedure: as §4, §2, §5

[7] = tested on: fruit flies (Drosophila melanogaster); test: pesticidal test against fruit flies; details: liquid composition containing 500 ppm by weight of compound
Procedure: as §4, §2, §5

[8] = tested on: corn root worm (Diabrotica balteata); test: pesticidal test against corn root worm; details: liquid composition containing 500 ppm by weight of compound
Procedure: as §4, §2, §5

[9] = tested on: peach potato aphids (Myzus persicae); details: 500 ppm by weight; infested Chinese cabbage leaves sprayed; mortality assessed after three days
Procedure: as §1, §2, §3

[10] = tested on: two-spotted spider mites (Tetranychus urticae); details: liquid composition containing 500 ppm by weight of compound
Procedure: as §4, §2, §5

[11] = tested on: Phytophthora infestans lycopersici (PHYTIN); assay type: in vivo; details: 100 ppm foliar spray on tomatoes; inoculated one day after chemical application (Prot)
[12] = tested on: Plasmopara viticola (PLASVI); test: foliar fungicide test on vines (Example 19); assay type: in vivo; details: 100 ppm foliar (Prot) application on vines; inoculated 6 hours or one day after application
[13] = tested on: Blumeria graminis f.sp. tritici (ERYSGT); test: foliar fungicide test on wheat (Example 19); assay type: in vivo; details: 100 ppm foliar (Prot) application on wheat; inoculated 6 hours or one day after application

Row | SMILES | mortality (score) Px [5] | mortality (score) Hv [6] | mortality (score) Dm [7] | mortality (score) Db [8] | mortality (score) Mp [9] | further results
1 | Cc1nsc(NC(=O)C(C)c2ccc3oc(CC(C)(C)C)nc3c2)c1Cl (stereo not shown) [Table 1 Compound 7, N-(4-chloro-3-methylisothiazol-5-yl)-2-[2-(2,2-dimethylpropyl)benzoxazol-5-yl]propionamide] | – | – | – | – | – | UNCINE Erad, PRCO (Percentage Reduction from Control) [1]: 100; PUCCRT Prot, PRCO (Percentage Reduction from Control) [2]: 85; mortality at 500 ppm [3]: 40 to 79%; PYRIOR Prot, PRCO (Percentage Reduction from Control) [4]: 24
2 | CCc1nsc(NC(=O)C(C)c2ccc3sc(CC(C)C)nc3c2)c1Cl (stereo not shown) [Table 39 Compound 86, N-(4-chloro-3-ethylisothiazol-5-yl)-2-[2-(2-methylpropyl)benzothiazol-5-yl]propionamide] | 9 (9 indicates 80-100% mortality) | 9 (9 indicates 80-100% mortality) | 0 (represents less than 40% mortality) | 9 (9 indicates 80-100% mortality) | – | mortality at 500 ppm [3]: 40 to 79%
3 | Cc1nsc(NC(=O)C(=CNCc2ccc(Cl)cc2)c2ccc3oc(CC(C)(C)C)nc3c2)c1Cl [Table 19 Compound 7] | – | – | – | – | 5 (5 indicates 40-79% mortality) and 9 (9 indicates 80-100% mortality) | mortality (score) Tu [10]: 9 (9 indicates 80-100% mortality)
4 | Cc1nsc(NC(=O)C(C)(F)c2ccc3oc(CC(C)(C)C)nc3c2)c1Cl (stereo not shown) [Table 6 Compound 7, N-(4-chloro-3-methylisothiazol-5-yl)-2-[2-(2,2-dimethylpropyl)benzoxazol-5-yl]-2-fluoropropionamide] | – | 9 (9 indicates 80-100% mortality) | 5 (5 indicates 40-79% mortality) | 9 (9 indicates 80-100% mortality) | – | mortality at 500 ppm [3]: 80 to 100%
5 | C=C(C(=O)Nc1snc(C)c1Cl)c1ccc2oc(CC(C)(C)C)nc2c1 [Table 11 Compound 7] | – | – | – | – | – | UNCINE Prot, PRCO (Percentage Reduction from Control) ([1]; inoculated one day after chemical application (Prot)): 73; PUCCRT Prot, PRCO (Percentage Reduction from Control) [2]: 27; PYRIOR Prot, PRCO (Percentage Reduction from Control) [4]: 66; PHYTIN Prot, PRCO (Percentage Reduction from Control) [11]: 50
6 | Cc1nsc(NC(=O)C(O)c2ccc3oc(CC(C)(C)C)nc3c2)c1Cl (stereo not shown) [Table 7 Compound 7] | 9 (9 indicates 80-100% mortality) | – | 9 (9 indicates 80-100% mortality) | – | 0 (represents less than 40% mortality) | mortality (score) Tu [10]: 9 (9 indicates 80-100% mortality)
7 | Cc1nsc(NC(=O)C(F)c2ccc3oc(C(F)(F)C(F)(F)C(F)(F)F)nc3c2)c1Cl (stereo not shown) [Table 5 Compound 10] | 9 (9 indicates 80-100% mortality) | 9 (9 indicates 80-100% mortality) | 9 (9 indicates 80-100% mortality) | 9 (9 indicates 80-100% mortality) | 9 (9 indicates 80-100% mortality) | –
8 | Cc1nsc(NC(=O)C(F)c2ccc3sc(CC(C)(C)C)nc3c2)c1Cl (stereo not shown) [Table 42 Compound 7] | 5 (5 indicates 40-79% mortality) | 9 (9 indicates 80-100% mortality) | 9 (9 indicates 80-100% mortality) | 9 (9 indicates 80-100% mortality) | 9 (9 indicates 80-100% mortality) | –
9 | CC(=O)OCC(C(=O)Nc1snc(C)c1Cl)c1ccc2oc(CC(C)(C)C)nc2c1 (stereo not shown) [Table 28 Compound 7] | – | 9 (9 indicates 80-100% mortality) | 0 (represents less than 40% mortality) | 0 (represents less than 40% mortality) | 5 (5 indicates 40-79% mortality) | PLASVI Prot, PRCO (Percentage Reduction from Control) [12]: 97; ERYSGT Prot, PRCO (Percentage Reduction from Control) [13]: 98
10 | Cc1nsc(NC(=O)C(SC(C)C)c2ccc3oc(CC(C)(C)C)nc3c2)c1Cl (stereo not shown) [Table 22 Compound 7] | – | – | – | – | 0 (represents less than 40% mortality) | mortality (score) Tu [10]: 9 (9 indicates 80-100% mortality)
11 | Cc1nsc(NC(=O)C(c2ccc3oc(CC(C)(C)C)nc3c2)C(C)C)c1Cl (stereo not shown) [Table 3 Compound 7] | – | – | – | – | – | UNCINE Erad, PRCO (Percentage Reduction from Control) [1]: 91; PUCCRT Prot, PRCO (Percentage Reduction from Control) [2]: 19; PHYTIN Prot, PRCO (Percentage Reduction from Control) [11]: 20
12 | Cc1nsc(NC(=O)C(C)c2ccc3oc(CC(F)(F)F)nc3c2)c1Cl (stereo not shown) [Table 1 Compound 8, N-(4-chloro-3-methylisothiazol-5-yl)-2-[2-(2,2,2-trifluoroethyl)benzoxazol-5-yl]propionamide] | 9 (9 indicates 80-100% mortality) | 9 (9 indicates 80-100% mortality) | 0 (represents less than 40% mortality) | 9 (9 indicates 80-100% mortality) | – | mortality at 500 ppm [3]: 40 to 79%
13 | CCOCN(C(=O)/C=C/c1ccc2oc(CC(C)(C)C)nc2c1)c1snc(C)c1Cl [Table 81 Compound 77] | 0 (represents less than 40% mortality) | 0 (represents less than 40% mortality) | 0 (represents less than 40% mortality) | 9 (9 indicates 80-100% mortality) | 0 (represents less than 40% mortality) | mortality (score) Tu [10]: 0 (represents less than 40% mortality)
14 | CCOCN(C(=O)C(C)c1ccc2sc(CC(C)(C)C)nc2c1)c1snc(CC)c1Cl (stereo not shown) [Table 39 Compound 157] | 9 (9 indicates 80-100% mortality) | 9 (9 indicates 80-100% mortality) | 0 (represents less than 40% mortality) | 9 (9 indicates 80-100% mortality) | 9 (9 indicates 80-100% mortality) | –
15 | CCc1nsc(NC(=O)C(F)c2ccc3sc(CC(C)(C)C)nc3c2)c1Cl (stereo not shown) [Table 42 Compound 87] | 9 (9 indicates 80-100% mortality) | 9 (9 indicates 80-100% mortality) | 9 (9 indicates 80-100% mortality) | 9 (9 indicates 80-100% mortality) | 9 (9 indicates 80-100% mortality) | –
16 | CCOCN(C(=O)C(C)c1ccc2oc(CC(C)(C)C)nc2c1)c1snc(CC)c1Cl (stereo not shown) [Table 1 Compound 157] | 9 (9 indicates 80-100% mortality) | 9 (9 indicates 80-100% mortality) | 0 (represents less than 40% mortality) | 9 (9 indicates 80-100% mortality) | 9 (9 indicates 80-100% mortality) | –
17 | CCOCN(C(=O)C(C)c1ccc2oc(CC(C)C)nc2c1)c1snc(C)c1Cl (stereo not shown) [Table 1 Compound 76] | 9 (9 indicates 80-100% mortality) | 5 (5 indicates 40-79% mortality) | 9 (9 indicates 80-100% mortality) | 9 (9 indicates 80-100% mortality) | 9 (9 indicates 80-100% mortality) | –
18 | Cc1nsc(NC(=O)C(=O)c2ccc3oc(CC(C)(C)C)nc3c2)c1Cl [Table 10 Compound 7] | 9 (9 indicates 80-100% mortality) | – | – | – | 9 (9 indicates 80-100% mortality) | mortality (score) Tu [10]: 0 (represents less than 40% mortality)
19 | CCOC(=O)CNN=C(C(=O)Nc1snc(C)c1Cl)c1ccc2oc(CC(C)(C)C)nc2c1 [Table 30 Compound 7] | – | – | – | – | 9 (9 indicates 80-100% mortality) | ERYSGT Prot, PRCO (Percentage Reduction from Control) [13]: 100
20 | CCc1nsc(NC(=O)C(OC)c2ccc3oc(CC(C)C)nc3c2)c1Cl (stereo not shown) [Table 9 Compound 86] | 9 (9 indicates 80-100% mortality) | 9 (9 indicates 80-100% mortality) | 5 (5 indicates 40-79% mortality) | 9 (9 indicates 80-100% mortality) | 9 (9 indicates 80-100% mortality) | –
